Measured values published in patent US9855277B2, “Use of 5H-dibenz/b,f/azepine-5-carboxamide derivatives for treating fibromyalgia” (BIAL—PORTELA & CA, S.A., priority 2009, dated 2018).

Tested on: peripheral nerve filaments of CCI mice
Assay: Ectopic discharge of peripheral nerve filaments in CCI mice (electrophysiological recording)
Type: in vivo
Conditions: for ectopic discharge firing rate: 5 preparations
Source text: Adult male BL CB F1 mice, weighing 25-30 g at the time of surgery and 26-38 g at the time of electrophysiological experiments, were used. The baseline paw withdrawal threshold (PWT) was examined using a series of graduated von Frey hairs (see below) on 3 consecutive days before surgery and re-assessed on the 7th and on the 14th days after surgery, before electrophysiological recording. The animals were killed by an overdose of pentobarbitone on completion of the study. The chronic constriction injury (CCI) model was prepared following the standard protocols described previously (Bennett and Xie, 1988). Mice were anaesthetised and the lateral side of the left thigh was shaved and sterilized with 75% ethanol. A small incision of approximately 0.5 cm was made parallel to the femur. The muscle was carefully separated to expose the sciatic nerve. Three loose ligatures were placed on the sciatic nerve with 5-0 suture silk thread at approximately 1 mm intervals. The wound was closed in layers with suture silk 4-0 and the animals were placed in a recovery chamber with the temperature controlled and set at 30° C. A dose of amoxicillin (0.02 mL, 3 mg) was routinely injected i.p. after surgery to prevent infection. The animals were returned to their home cages after complete recovery of consciousness and freedom of movement. For the first 2 days after surgery, the animals were closely monitored at least twice daily and subsequently, at least once daily until compound testing. Each animal was placed in a perspex cage on a metal mesh. A series of von Frey filaments (0.07 g, 0.16 g, 0.4 g, 0.6 g, 1.0 g) were applied to the plantar surface of the hind-paw, from below. The filaments were applied in ascending order (starting with the lowest force 0.07 g) to both ipsilateral and contralateral hind-paws. Each filament was applied 10 times with a protocol of one second on, one second off. The PWT was defined as being the lowest force required to elicit at least 5 paw withdrawal responses out of 10 trials. The baseline PWT was tested for 3 consecutive days before surgery and re-assessed on the 7th and 14th days after surgery to monitor the development of mechanical allodynia. Only those mice showing significant mechanical allodynia (PWT≦0.2 g) were selected for subsequent electrophysiological experiments. The mice were re-anaesthetised and the sciatic nerve was exposed via a dorsal incision on the hind-limb. The skin was secured (stitched) to a metal O-ring to form an oil pool for recording nerve activity. A reference electrode was connected to the metal O-ring to form a closed circuit with the nerve recording electrode. To record ectopic discharge generated from the intact animal, under a microscope, the small bundles of sural nerve (distal to the ligated area) were repeatedly teased and looped onto a unipolar silver electrode for examination. To facilitate the recording of ectopic discharge generated from the neuroma (ligated area) or from the DRG, the sciatic nerve was separated carefully from the surrounding connective tissues, sectioned at a more proximal site leaving the injured area intact or near the injured area leaving the more proximal part intact. A small bundle of nerve filaments were teased from the sciatic nerve from either the distal or proximal cut end of the sciatic nerve, to record neuroma-generated ectopic discharge, or from the proximal cut end to record DRG-generated ectopic discharge. The filament was looped on to a unipolar silver wire recording electrode with an indifference electrode connected to the connective tissues nearby, allowing the spontaneous activity generated from either the ligated area (sensitized axons) or from DRG (somata) to be recorded. The electrical signals were then recorded through a CED micro-1401 interface to a PC for later off-line analysis. Recording from a fibre with spontaneous activity was undertaken for at least 10 min for control and 40 min after either vehicle or ESL administration. […]

SMILES: CC(=O)O[C@H]1Cc2ccccc2N(C(N)=O)c2ccccc21 [ESL, S-(−)-10-acetoxy-10,11-dihydro-5H-dibenz/b,f/azepine-5-carboxamide]
- ectopic discharge, % of control (DRG origin, ESL 100 mg/kg i.p., P<0.05 vs vehicle): 58.43±13.21 % of control
- ectopic discharge average firing rate (DRG origin, ESL 100 mg/kg i.p., control 514.3±141.0, 6 preparations): 274.4±117.1 imps/min
- ectopic discharge, % of control level (intact CCI mice, ESL 100 mg/kg ip, 30-35 min after injection, P<0.001 vs control): 26.6±10.6 % of control
- ectopic discharge firing rate (intact CCI mice, ESL 100 mg/kg ip, 30-35 min after injection, control 2048.0±391.6, mean±SEM): 699.8±339.7 imps/min
- ectopic discharge firing rate (neuroma origin (sciatic nerve sectioned proximally), ESL 100 mg/kg ip, 30 min after injection, control 1390.6±378.5): 643.5±249.2 imps/min
- ectopic discharge, % of control levels (neuroma origin, ESL 100 mg/kg ip, 30 min after injection, P<0.01): 36.5±12.3 % of control
